In patent US11466029B2, “Compounds useful to treat influenza virus infections” (Nanjing Zhengxiang Pharmaceuticals Co., Ltd., priority 2019, dated 2022) one finds EC50 data, which are given here for five compounds.

The assay concerns Oseltamivir-resistant A/Weiss/43 (H1N1). In words: microbe, parasite or virus in culture. The conditions noted are these: Influenza A virus, H1N1, MDCK, 120 h. It is filed as cell-based.

As to `CCP(=O)(CC)c1cn2c(c(O)c1=O)C(=O)N1CCOC[C@H]1N2[C@@H]1c2ccccc2SCc2c1ccc(F)c2F` [Compound F-1, (R)-9-(Diethylphosphoryl)-12-((S)-7,8-Difluoro-6,11-Dihydrodibenzo[b,e]-Thiepin-11-yl)-7-Hydroxy-3,4,12,12a-Tetrahydro-1H-[1,4]Oxazino[3,4-c]Pyrido[2,1-f][1,2,4]Triazine-6,8-Dione], the EC50 came to 881 nM.
Consider `CCC(CC)O[C@@H]1C=C(C(=O)O)C[C@H](N)[C@H]1NC(C)=O` [Oseltamivir acid, reference compound], for which the EC50 is over 100000 nM.
For the compound `CP(C)(=O)c1cn2c(c(O)c1=O)C(=O)N1CCOC[C@H]1N2[C@@H]1c2ccccc2SCc2c1ccc(F)c2F` [Compound E-1c, (R)-12-((S)-7,8-difluoro-6,11-dihydrodibenzo[b,e]thiepin-11-yl)-9-(dimethylphosphoryl)-7-hydroxy-3,4,12,12a-tetrahydro-1H-[1,4]oxazino[3,4-c]pyrido[2,1-f][1,2,4]triazine-6,8-dione], the EC50 came to 254 nM.
The compound `O=C1c2c(O)c(=O)ccn2N([C@@H]2c3ccccc3SCc3c2ccc(F)c3F)[C@@H]2COCCN12` [Baloxavir acid, reference compound] showed an EC50 of 1 nM.
With `O=C1c2c(O)c(=O)ccn2N([C@@H]2c3ccccc3[Se]Cc3c2ccc(F)c3F)[C@@H]2COCCN12` [Compound B-1, (R)-12-((S)-7,8-Difluoro-6,11-Dihydrodibenzo[b,e]Selenepin-11-yl)-7-Hydroxy-3,4,12,12a-Tetrahydro-1H-[1,4]Oxazino[3,4-c]Pyrido[2,1-f][1,2,4]Triazine-6,8-Dione] the figure was 1.1 nM.
